Test results as given in ChEMBL document CHEMBL1153601, “Rapid identification of improved protein ligands using peptoid microarrays” (Bioorg Med Chem Lett, 2009).
Active and inactive are the calls of the source. No cut-off for these calls is given here. Where a SMILES comes first, the peptide text is derived from it. [ ]: non-standard residue; d: D form. Gly(N-piperonyl) = O=C(O)CNCc1ccc2c(c1)OCO2; Gly(N-propargyl) = C#CCNCC(=O)O; NFurfurylGly = O=C(O)CNCc1ccco1; NAllylGly = C=CCNCC(=O)O; Nleu = CC(C)CNCC(=O)O; Nlys = NCCCCNCC(=O)O

Tests used:
CREB-binding protein [1] = target: T1, CREB-binding protein (Homo sapiens, UniProt Q92793); experiment: Binding affinity to histidine tagged KIX domain of CREB-binding protein expressed in Escherichia coli by affinity purification assay
Target sequence in this assay (Q92793 2-2442 limits assumed): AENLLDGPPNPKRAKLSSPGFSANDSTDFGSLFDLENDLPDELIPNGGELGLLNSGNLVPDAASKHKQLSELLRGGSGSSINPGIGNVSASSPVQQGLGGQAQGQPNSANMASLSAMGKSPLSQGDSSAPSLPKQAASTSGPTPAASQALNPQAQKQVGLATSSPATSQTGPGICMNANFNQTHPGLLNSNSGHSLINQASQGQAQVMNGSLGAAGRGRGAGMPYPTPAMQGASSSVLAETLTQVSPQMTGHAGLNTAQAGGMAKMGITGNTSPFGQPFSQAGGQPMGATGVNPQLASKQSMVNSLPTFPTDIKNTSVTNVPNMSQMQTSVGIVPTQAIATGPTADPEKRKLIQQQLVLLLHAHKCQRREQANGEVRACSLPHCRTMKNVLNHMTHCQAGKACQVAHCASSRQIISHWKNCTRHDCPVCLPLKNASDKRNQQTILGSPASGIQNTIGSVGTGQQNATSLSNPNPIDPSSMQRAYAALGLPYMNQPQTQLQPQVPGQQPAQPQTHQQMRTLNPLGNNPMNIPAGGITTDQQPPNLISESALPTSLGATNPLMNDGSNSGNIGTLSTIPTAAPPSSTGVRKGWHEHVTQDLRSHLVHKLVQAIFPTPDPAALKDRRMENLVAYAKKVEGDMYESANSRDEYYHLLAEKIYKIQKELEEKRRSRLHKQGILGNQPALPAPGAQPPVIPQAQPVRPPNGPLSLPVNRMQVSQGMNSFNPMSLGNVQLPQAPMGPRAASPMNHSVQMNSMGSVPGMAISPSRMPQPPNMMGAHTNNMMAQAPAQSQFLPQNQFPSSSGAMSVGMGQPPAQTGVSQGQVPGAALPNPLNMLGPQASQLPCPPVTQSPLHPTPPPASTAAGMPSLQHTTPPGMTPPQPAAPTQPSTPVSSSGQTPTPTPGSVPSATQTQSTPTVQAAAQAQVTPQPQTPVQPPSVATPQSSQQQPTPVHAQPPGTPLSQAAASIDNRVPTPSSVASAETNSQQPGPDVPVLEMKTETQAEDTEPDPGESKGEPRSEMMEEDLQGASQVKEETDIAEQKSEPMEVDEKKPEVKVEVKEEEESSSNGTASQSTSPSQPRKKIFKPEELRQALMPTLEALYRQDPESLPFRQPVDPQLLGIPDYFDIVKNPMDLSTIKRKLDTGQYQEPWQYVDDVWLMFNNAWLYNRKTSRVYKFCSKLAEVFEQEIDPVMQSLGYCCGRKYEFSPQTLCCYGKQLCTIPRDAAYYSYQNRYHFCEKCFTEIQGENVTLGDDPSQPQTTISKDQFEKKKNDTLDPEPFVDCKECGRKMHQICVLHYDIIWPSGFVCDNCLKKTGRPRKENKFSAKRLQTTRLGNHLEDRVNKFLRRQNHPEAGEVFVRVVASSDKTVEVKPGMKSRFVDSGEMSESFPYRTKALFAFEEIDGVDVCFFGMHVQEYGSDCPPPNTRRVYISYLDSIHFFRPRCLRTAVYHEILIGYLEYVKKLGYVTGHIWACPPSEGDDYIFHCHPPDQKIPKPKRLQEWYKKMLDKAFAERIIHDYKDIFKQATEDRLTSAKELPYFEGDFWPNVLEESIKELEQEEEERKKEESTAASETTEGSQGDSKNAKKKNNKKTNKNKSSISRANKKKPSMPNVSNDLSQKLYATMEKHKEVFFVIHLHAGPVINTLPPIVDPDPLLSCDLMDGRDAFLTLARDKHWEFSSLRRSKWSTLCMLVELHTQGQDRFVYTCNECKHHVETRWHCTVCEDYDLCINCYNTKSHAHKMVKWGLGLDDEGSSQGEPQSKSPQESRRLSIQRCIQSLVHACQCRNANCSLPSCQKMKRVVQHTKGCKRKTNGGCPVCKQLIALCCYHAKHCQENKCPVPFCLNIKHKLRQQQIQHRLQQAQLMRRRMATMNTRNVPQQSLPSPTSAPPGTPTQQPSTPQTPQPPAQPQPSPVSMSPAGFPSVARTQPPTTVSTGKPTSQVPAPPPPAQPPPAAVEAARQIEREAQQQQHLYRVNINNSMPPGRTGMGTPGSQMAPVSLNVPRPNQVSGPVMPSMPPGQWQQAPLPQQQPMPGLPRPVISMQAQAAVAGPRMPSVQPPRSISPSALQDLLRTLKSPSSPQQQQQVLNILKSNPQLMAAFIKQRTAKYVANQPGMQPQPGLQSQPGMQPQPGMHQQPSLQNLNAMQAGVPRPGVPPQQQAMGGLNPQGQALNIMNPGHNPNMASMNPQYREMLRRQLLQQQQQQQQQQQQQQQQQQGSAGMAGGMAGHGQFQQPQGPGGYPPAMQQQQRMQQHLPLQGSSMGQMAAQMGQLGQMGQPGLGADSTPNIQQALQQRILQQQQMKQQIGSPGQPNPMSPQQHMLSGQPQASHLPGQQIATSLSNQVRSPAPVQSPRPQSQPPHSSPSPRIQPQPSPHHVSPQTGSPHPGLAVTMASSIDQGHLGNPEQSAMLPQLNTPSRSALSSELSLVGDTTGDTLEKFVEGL

CREB-binding protein [2] = target: T1, CREB-binding protein; experiment: Binding affinity to histidine tagged KIX domain of CREB-binding protein by fluorescence polarization assay
Target sequence in this assay (Q92793 whole entry, the tested form may be a part): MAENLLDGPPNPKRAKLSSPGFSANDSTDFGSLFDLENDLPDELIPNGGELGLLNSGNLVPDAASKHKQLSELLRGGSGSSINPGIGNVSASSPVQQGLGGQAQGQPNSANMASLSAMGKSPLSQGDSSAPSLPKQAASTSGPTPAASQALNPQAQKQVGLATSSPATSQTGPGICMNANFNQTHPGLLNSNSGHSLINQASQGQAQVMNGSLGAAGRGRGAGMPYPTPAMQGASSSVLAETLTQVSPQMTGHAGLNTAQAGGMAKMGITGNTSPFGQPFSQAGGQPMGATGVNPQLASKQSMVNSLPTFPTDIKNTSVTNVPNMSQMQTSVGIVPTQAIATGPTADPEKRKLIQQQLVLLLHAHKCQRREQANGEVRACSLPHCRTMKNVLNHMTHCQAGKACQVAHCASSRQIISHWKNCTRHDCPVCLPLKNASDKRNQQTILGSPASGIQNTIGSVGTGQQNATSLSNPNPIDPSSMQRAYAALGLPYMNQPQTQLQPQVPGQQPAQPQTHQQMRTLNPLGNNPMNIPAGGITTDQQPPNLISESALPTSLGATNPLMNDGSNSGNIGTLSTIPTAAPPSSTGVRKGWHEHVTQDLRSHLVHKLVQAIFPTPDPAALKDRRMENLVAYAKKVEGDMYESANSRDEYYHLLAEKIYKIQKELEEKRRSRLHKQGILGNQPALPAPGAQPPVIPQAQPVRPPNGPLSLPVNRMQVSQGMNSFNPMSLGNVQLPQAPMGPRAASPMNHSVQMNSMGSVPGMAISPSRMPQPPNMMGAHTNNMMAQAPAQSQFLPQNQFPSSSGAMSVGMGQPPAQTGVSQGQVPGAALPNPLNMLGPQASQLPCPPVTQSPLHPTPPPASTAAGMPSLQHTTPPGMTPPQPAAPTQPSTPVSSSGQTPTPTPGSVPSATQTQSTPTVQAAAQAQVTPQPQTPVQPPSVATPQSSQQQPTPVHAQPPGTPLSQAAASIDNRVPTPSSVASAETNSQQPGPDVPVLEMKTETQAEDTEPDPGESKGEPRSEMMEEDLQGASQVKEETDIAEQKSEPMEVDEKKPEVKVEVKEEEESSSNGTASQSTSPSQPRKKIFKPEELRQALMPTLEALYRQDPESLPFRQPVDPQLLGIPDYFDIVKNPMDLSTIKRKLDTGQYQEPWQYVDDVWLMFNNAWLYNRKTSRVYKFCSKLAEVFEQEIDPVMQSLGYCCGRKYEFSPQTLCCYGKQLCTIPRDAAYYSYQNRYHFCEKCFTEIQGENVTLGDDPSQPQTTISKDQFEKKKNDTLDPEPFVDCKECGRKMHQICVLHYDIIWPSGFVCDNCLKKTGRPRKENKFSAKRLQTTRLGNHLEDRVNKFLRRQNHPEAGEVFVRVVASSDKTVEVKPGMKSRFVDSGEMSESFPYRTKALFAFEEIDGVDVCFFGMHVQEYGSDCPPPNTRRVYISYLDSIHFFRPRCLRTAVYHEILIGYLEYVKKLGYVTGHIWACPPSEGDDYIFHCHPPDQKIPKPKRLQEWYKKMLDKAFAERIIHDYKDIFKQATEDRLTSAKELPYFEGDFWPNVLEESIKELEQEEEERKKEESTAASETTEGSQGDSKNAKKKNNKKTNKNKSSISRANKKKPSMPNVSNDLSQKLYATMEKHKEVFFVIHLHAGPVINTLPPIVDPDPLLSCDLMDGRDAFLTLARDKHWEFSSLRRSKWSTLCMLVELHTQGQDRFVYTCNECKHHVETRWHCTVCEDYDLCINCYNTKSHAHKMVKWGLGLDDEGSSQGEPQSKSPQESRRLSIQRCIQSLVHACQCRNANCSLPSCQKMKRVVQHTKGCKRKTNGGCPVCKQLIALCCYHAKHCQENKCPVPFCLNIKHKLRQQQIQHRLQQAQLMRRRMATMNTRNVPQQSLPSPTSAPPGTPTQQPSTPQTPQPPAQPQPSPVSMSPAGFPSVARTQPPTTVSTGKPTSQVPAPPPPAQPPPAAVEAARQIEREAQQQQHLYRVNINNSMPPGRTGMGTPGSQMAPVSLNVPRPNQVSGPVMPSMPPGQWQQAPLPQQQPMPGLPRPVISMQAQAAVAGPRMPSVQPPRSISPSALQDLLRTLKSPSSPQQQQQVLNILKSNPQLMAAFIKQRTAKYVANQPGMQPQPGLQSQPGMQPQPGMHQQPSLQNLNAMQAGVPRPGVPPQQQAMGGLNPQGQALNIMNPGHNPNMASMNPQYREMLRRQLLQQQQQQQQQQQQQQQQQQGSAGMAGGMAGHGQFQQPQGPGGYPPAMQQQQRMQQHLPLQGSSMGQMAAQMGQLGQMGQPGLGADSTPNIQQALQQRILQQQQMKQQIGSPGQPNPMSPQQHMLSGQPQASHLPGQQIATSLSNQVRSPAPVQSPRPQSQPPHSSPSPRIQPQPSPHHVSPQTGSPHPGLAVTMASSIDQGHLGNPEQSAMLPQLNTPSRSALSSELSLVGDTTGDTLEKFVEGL

| Activity (CREB-binding protein [1]) | Kd (CREB-binding protein [2]) [µM] | Compound |
| --- | --- | --- |
| inactive | 195 | CC(C)CN(CC(=O)N(CCCCN)CC(=O)N(CC(N)=O)Cc1ccc2c(c1)OCO2)C(=O)CN(Cc1ccc2c(c1)OCO2)C(=O)CN(CCCCN)C(=O)CNCc1ccc2c(c1)OCO2 (H-[Gly(N-piperonyl)][Nlys][Gly(N-piperonyl)][Nleu][Nlys][Gly(N-piperonyl)]-NH2) |
| Active | 4.6 | C#CCNCC(=O)N(CC(=O)N(CC(=O)N(CC(=O)N(CC(=O)N(CC=C)CC(=O)N(CC(N)=O)CC(C)C)Cc1ccco1)Cc1ccco1)Cc1ccco1)CC(C)C (H-[Gly(N-propargyl)][Nleu][NFurfurylGly][NFurfurylGly][NFurfurylGly][NAllylGly][Nleu]-NH2) |
|  | 8.3 | C=CCN(CC(=O)N(CC(N)=O)CC(C)C)C(=O)CN(Cc1ccco1)C(=O)CN(Cc1ccco1)C(=O)CN(Cc1ccco1)C(=O)CN(CC(C)C)C(=O)CNCc1cn(CCCCN(CC(N)=O)C(=O)CN(Cc2ccc3c(c2)OCO3)C(=O)CN(CCCCN)C(=O)CN(Cc2ccc3c(c2)OCO3)C(=O)CN(CC(C)C)C(=O)CN(CCCCN)C(=O)CNCc2ccc3c(c2)OCO3)nn1 |
|  | 72.8 | CC(C)CN(CC(=O)N(CC(=O)N(CCCCN)CC(=O)N(CC(=O)N(CCCCn1cc(CNCC(=O)N(CC(=O)N(CCO)CC(=O)N(CC(=O)N(CC(=O)N(CCCCN)CC(=O)N(CC(N)=O)Cc2ccco2)Cc2ccco2)Cc2ccc3c(c2)OCO3)Cc2ccco2)nn1)CC(N)=O)Cc1ccc2c(c1)OCO2)Cc1ccc2c(c1)OCO2)C(=O)CN(CCCCN)C(=O)CNCc1ccc2c(c1)OCO2 |
